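Five compound concentrations were applied to cells in 96-well plates for 48 hours; endpoints were derived by simple linear interpolation of the resulting dose-response curve. Here, GI50 denotes the concentration required for 50% inhibition of growth.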 Calls of active or inactive are those of the source. Rule as the data show it: active = GI50 up to about 1.1 µM and inactive = higher.
Key:
Assay in all cases: NCI anticancer screen, dose series, 48 h
SK-MEL-2 = test system: SK-MEL-2
K562 = test system: K562
SR = test system: SR
EKVX = test system: EKVX
NCI-H460 = test system: NCI-H460
HOP-92 = test system: HOP-92
UO-31 = test system: UO-31
M14 = test system: M14
HCT-15 = test system: HCT-15
SF-539 = test system: SF-539
SF-268 = test system: SF-268
TK-10 = test system: TK-10
IGROV-1 = test system: IGROV-1
Malme-3M = test system: Malme-3M
NCI-H226 = test system: NCI-H226
RPMI-8226 = test system: RPMI-8226
RXF 393 = test system: RXF 393
HCC 2998 = test system: HCC 2998
786-0 = test system: 786-0
SNB-75 = test system: SNB-75

Structure (SMILES) | GI50 (SK-MEL-2) | GI50 (K562) | GI50 (SR) | GI50 (EKVX) | GI50 (NCI-H460) | GI50 (HOP-92) | GI50 (UO-31) | GI50 (M14) | GI50 (HCT-15) [µM] | GI50 (SF-539) | GI50 (SF-268) | GI50 (TK-10) | GI50 (IGROV-1) | GI50 (Malme-3M) | GI50 (NCI-H226) | GI50 (RPMI-8226) | GI50 (RXF 393) | GI50 (HCC 2998) | GI50 (786-0) | GI50 (SNB-75)
CN(CCNC(=O)c1c[nH]c2c1Cc1ccccc1-2)CCNC(=O)c1c[nH]c2c1Cc1ccccc1-2 | 20.6 µM (inactive) | 30.3 µM (inactive) | 29.6 µM (inactive) | 37.1 µM (inactive) | 35.1 µM (inactive) | 22.6 µM (inactive) | 28.6 µM (inactive) | 30.8 µM (inactive) | 30.9 | 19.5 µM (inactive) | 32 µM (inactive) | 45.9 µM (inactive) | 27.9 µM (inactive) | 82.8 µM (inactive) | 24.6 µM (inactive) | 26.5 µM (inactive) | 30.5 µM (inactive) | 52.6 µM (inactive) | 20.6 µM (inactive) | 
CC(=O)NNc1nc(C)c(C(=O)/C=C/c2cccc([N+](=O)[O-])c2)s1 | > 100 µM (inactive) | > 100 µM (inactive) | > 100 µM (inactive) | 19.5 µM (inactive) | > 100 µM (inactive) | > 100 µM (inactive) | > 100 µM (inactive) | > 100 µM (inactive) | > 100 | > 100 µM (inactive) | > 100 µM (inactive) | > 100 µM (inactive) | > 100 µM (inactive) | > 100 µM (inactive) | > 100 µM (inactive) | > 100 µM (inactive) | > 100 µM (inactive) | > 100 µM (inactive) | > 100 µM (inactive) | 
NS(=O)(=O)c1ccc(NNc2c3ccccc3nc3c(C(=O)Nc4ccc(S(=O)(=O)Nc5ncccn5)cc4)cccc23)cc1 | > 25 µM (inactive) | > 25 µM (inactive) | > 25 µM (inactive) | > 25 µM (inactive) | > 25 µM (inactive) | > 25 µM (inactive) | > 25 µM (inactive) | > 25 µM (inactive) | > 25 | > 25 µM (inactive) | > 25 µM (inactive) | > 25 µM (inactive) | > 25 µM (inactive) | > 25 µM (inactive) | > 25 µM (inactive) | > 25 µM (inactive) | > 25 µM (inactive) | > 25 µM (inactive) | > 25 µM (inactive) | 20.2 µM (inactive)
O=C(c1ccccc1)c1nnn(Cc2cccc(Cl)c2)c1C(=O)c1ccccc1 | > 100 µM (inactive) | > 100 µM (inactive) | > 100 µM (inactive) | 44.8 µM (inactive) | 8.17 µM (inactive) | > 100 µM (inactive) | > 100 µM (inactive) | > 100 µM (inactive) | > 100 |  | > 100 µM (inactive) | > 100 µM (inactive) | > 100 µM (inactive) | > 100 µM (inactive) | > 100 µM (inactive) | > 100 µM (inactive) | > 100 µM (inactive) | 44 µM (inactive) | > 100 µM (inactive) | > 100 µM (inactive)
CO[C@H]1C=CO[C@@]2(C)Oc3c(C)c(O)c4c(O)c(c(CN5CCN(C)CC5)c(O)c4c3C2=O)NC(=O)/C(C)=C\C=C[C@H](C)[C@H](O)C(C)[C@@H](O)C(C)[C@H](OC(C)=O)[C@@H]1C (some centres not stated) | 41.8 µM (inactive) | 20.9 µM (inactive) | 6.62 µM (inactive) | 68.5 µM (inactive) | 39.6 µM (inactive) | 71.4 µM (inactive) | 33.7 µM (inactive) | 24.2 µM (inactive) | 30.8 | 24.8 µM (inactive) | 50.2 µM (inactive) | 49.4 µM (inactive) | 33.8 µM (inactive) | 40.6 µM (inactive) | > 63.5 µM (inactive) | 4.62 µM (inactive) | 48.3 µM (inactive) | 44.4 µM (inactive) | 21.3 µM (inactive) | 72.9 µM (inactive)
[O-]c1c2c(nn1-c1ccc(F)cc1)c1ccccc1c[n+]2Cc1ccccc1 | 0.501 µM (active) | 0.687 µM (active) | 1.55 µM (inactive) | 19.4 µM (inactive) | 10.5 µM (inactive) | 18.9 µM (inactive) | 10.2 µM (inactive) | 1.79 µM (inactive) | 0.581 | 3.26 µM (inactive) | 18.9 µM (inactive) | 24.6 µM (inactive) | 11.1 µM (inactive) | 11.7 µM (inactive) | 16.6 µM (inactive) | 3.34 µM (inactive) | 15.1 µM (inactive) | 11.7 µM (inactive) |  | 23.3 µM (inactive)
Brc1ccc2c([C@H]3CN[C@@H](c4c[nH]c5cc(Br)ccc45)CN3)c[nH]c2c1 | 5.07 µM (inactive) | 1.74 µM (inactive) | 2.27 µM (inactive) | 10.5 µM (inactive) | 1.9 µM (inactive) | 3.24 µM (inactive) | 4.16 µM (inactive) | 2.24 µM (inactive) | 3.83 | 2.89 µM (inactive) | 6.79 µM (inactive) | 7.33 µM (inactive) | 3.19 µM (inactive) | 2.56 µM (inactive) | 7.26 µM (inactive) | 2.48 µM (inactive) | 2.4 µM (inactive) | 1.62 µM (inactive) | 1.65 µM (inactive) | 5.27 µM (inactive)
Cn1c(SCc2c[nH]c3ccccc23)nnc1-c1ccc(Cl)cc1Cl | 12.3 µM (inactive) | 4.23 µM (inactive) | 4.23 µM (inactive) | 15.3 µM (inactive) | 12.5 µM (inactive) | 12.6 µM (inactive) | 18 µM (inactive) | 11.4 µM (inactive) | 12.1 | 3.14 µM (inactive) | 23.9 µM (inactive) | 17.1 µM (inactive) | 17.4 µM (inactive) | 18.9 µM (inactive) |  | 13.1 µM (inactive) | 12.2 µM (inactive) | 12 µM (inactive) | 24.4 µM (inactive) | 1.29 µM (inactive)
CCSC(=O)N1c2ccc(OC)cc2C=CC1C#N (configuration not stated) | < 0.01 µM (active) | 0.00632 µM (active) | 0.000843 µM (active) | 0.392 µM (active) | 0.00423 µM (active) | 0.1 µM (active) | < 0.01 µM (active) | 0.00601 µM (active) | 0.00734 | 0.00177 µM (active) | 0.00113 µM (active) | 0.00971 µM (active) | 0.00373 µM (active) | 0.1 µM (active) | 0.00759 µM (active) | 0.00273 µM (active) | 0.1 µM (active) | 0.00895 µM (active) | 0.00344 µM (active) | 0.00417 µM (active)
COc1ccc2c(c1)C(=O)CC1c3cnccc3C(=O)N21 (configuration not stated) | > 100 µM (inactive) | > 94.8 µM (inactive) | > 85.5 µM (inactive) | > 79.4 µM (inactive) | > 67.9 µM (inactive) | > 100 µM (inactive) | 49.1 µM (inactive) | > 100 µM (inactive) | > 100 | > 100 µM (inactive) | > 100 µM (inactive) | > 100 µM (inactive) | > 85.1 µM (inactive) | > 100 µM (inactive) | > 100 µM (inactive) | > 92 µM (inactive) | > 75.9 µM (inactive) | > 86.1 µM (inactive) | > 100 µM (inactive) | > 100 µM (inactive)
C/C=C1/CN2CC[C@@H]3c4ccccc4N4[C@H](C(=O)OC)[C@H]1C[C@H]2[C@]34/C=C/C1=COC[C@@H]2[C@H]1C[C@H]1c3c(c4ccccc4n3C)C[C@@H]2N1C | 4.33 µM (inactive) | 6.15 µM (inactive) | 6.1 µM (inactive) | 2.99 µM (inactive) | 4.04 µM (inactive) | 4.28 µM (inactive) | 3.99 µM (inactive) | 4.37 µM (inactive) | 4.14 | 4.15 µM (inactive) | 3.61 µM (inactive) | 3.86 µM (inactive) | 4.57 µM (inactive) | 4.62 µM (inactive) | 4.5 µM (inactive) | 4.09 µM (inactive) | 4.19 µM (inactive) | 0.345 µM (active) |  | 
O=C1c2ccccc2-c2nnc(-c3ccc(Cl)cc3)cc21 | > 10 µM (inactive) | > 10 µM (inactive) | > 10 µM (inactive) | > 10 µM (inactive) | > 10 µM (inactive) | > 10 µM (inactive) | > 10 µM (inactive) | > 10 µM (inactive) | > 10 | > 10 µM (inactive) | > 10 µM (inactive) |  | > 10 µM (inactive) | > 10 µM (inactive) | > 10 µM (inactive) | > 10 µM (inactive) | > 10 µM (inactive) | > 10 µM (inactive) | > 10 µM (inactive) | > 10 µM (inactive)
CCC1=C(C[C@H]2NCCc3cc(OC)c(OC)cc32)C[C@H]2c3cc(OC)c(OC)cc3CCN2C1 | 0.0248 µM (active) |  | 0.0101 µM (active) | 0.0362 µM (active) | 0.0261 µM (active) | 0.0204 µM (active) | 0.316 µM (active) | 0.0235 µM (active) | 0.258 | 0.0326 µM (active) | 0.0356 µM (active) |  | 0.0445 µM (active) | 0.136 µM (active) |  | 0.021 µM (active) | 0.0254 µM (active) | 0.0293 µM (active) | 0.0261 µM (active) | 0.0332 µM (active)
C#Cc1ccccc1C(=O)OC | > 100 µM (inactive) | > 100 µM (inactive) | > 100 µM (inactive) | > 100 µM (inactive) | > 100 µM (inactive) | > 100 µM (inactive) | > 100 µM (inactive) | > 100 µM (inactive) | > 100 | > 100 µM (inactive) |  | > 100 µM (inactive) | > 100 µM (inactive) | > 100 µM (inactive) | > 100 µM (inactive) | > 100 µM (inactive) | > 100 µM (inactive) | > 100 µM (inactive) |  | 11.5 µM (inactive)

Reference: ChEMBL document CHEMBL1201862, “PubChem BioAssay data set” (2004)
